Laboratory results taken from article PMC6270837, “Preparation and Biological Properties of Ring-Substituted Naphthalene-1-Carboxanilides” (Molecules, 2014).
Entries after “also recorded” stand apart in the source; their conditions may differ.

Columns and labels:
[1] = tested on: human monocytic leukemia THP-1 cell line; assay: In vitro cytotoxicity assay (LDH)
Procedure: Human monocytic leukemia THP-1 cells were obtained from the European Collection of Cell Cultures (ECACC, Salisbury, UK; Methods of characterization: DNA Fingerprinting (Multilocus probes) and isoenzyme analysis). These cells were routinely cultured in RPMI 1640 (Lonza, Verviers, Belgium) medium supplemented with 10% fetal bovine serum (FBS, Sigma-Aldrich, St. Louis, MO, USA), 2% L-glutamine, 1% penicillin and streptomycin (Lonza) at 37 °C with 5% CO2. Cells were passaged at approximately one-week intervals. Cells were routinely tested for the absence of mycoplasma (Hoechst 33258 staining method). The tested compounds were dissolved in DMSO (Sigma-Aldrich) and added in five increasing concentrations to the cell suspension in the culture medium. The maximum concentration of DMSO in the assays never exceeded 0.1%. Subsequently, the cells were incubated for 24 h at 37 °C with 5% CO2 to various compound concentrations ranging from […] in RPMI 1640 medium. Cell toxicity was determined using a Cytotoxicity Detection Kit^PLUS Lactate dehydrogenase (LDH) assay kit (Roche Diagnostics, Mannheim, Germany) according to the manufacturer’s instructions, as described previously. For LDH assays, cells were seeded into 96-well plates (5 × 10^4 cells/well in 100 μL culture medium) in triplicate in serum-free RPMI 1640 medium, and measurements at 492 nm wavelength (Synergy 2 Multi-Mode Microplate Reader, BioTek, Winooski, VT, USA) were taken 24 h after the treatment with tested compounds. The median lethal dose values, LD50, were deduced through the production of a dose-response curve. All data were evaluated using GraphPad Prism 5.00 software (GraphPad Software, San Diego, CA, USA).
LDH Test Principle: The LDH activity is determined by a coupled enzymatic reaction, whereby the tetrazolium salt INT is reduced to formazan. An increase in the amount of dead or plasma membrane damaged cells results in an increase of LDH enzyme activity in the culture supernatant. This increase in the amount of enzyme activity in the supernatant directly correlates to the amount of formazan formed during a limited time period.

[2] = tested on: M. avium subsp. paratuberculosis; assay: MTT assay on mycobacteria; format: cell-based, Mycobacterium avium subsp. paratuberculosis; conditions: lowest tested concentration 8 µg/mL (ca. 30 µmol/L), four hours of incubation
Procedure: Additionally, a standard MTT assay was performed on these same compounds. The MTT assay is a well-characterized method of assessing cell growth through measurement of respiration.
For the MTT assay, the same 96-well plate set up and incubation conditions listed above were used. After the incubation period, a 10% addition of MTT reagent was mixed into each well and incubated at 37 °C for 4 h. The reagent and media were then aspirated from the wells to which 50 µL DMSO was then added and plates were read at 550 nm.

physchem = conditions: aqueous buffer, kinetic from dmso stock
[3] = Lipophilicity determination by RP-HPLC (capacity factor, log k); format: physicochemical; conditions: end-capped C18, isocratic MeOH 60%/H2O 40%
Procedure: Lipophilicity is a property that has a major effect on bioavailability, biotransformation as well as pharmacological activity, because drugs cross biological membranes through passive transport, which strongly depends on their lipophilicity. Lipophilicity of the studied compounds was determined by RP‑HPLC as capacity factor logarithm (log k). The procedure was performed under isocratic conditions with methanol as an organic modifier in the mobile phase using an end-capped non-polar C18 stationary RP column. The results of ring-substituted naphthalene-1-carboxanilides 1–8c are shown in Table 1 and illustrated in Figure 1. […] Lipophilicity was also calculated as log P using ACD/Percepta ver. 2012 (Advanced Chemistry Development, Inc., Toronto, ON, Canada).
A HPLC system Agilent 1200 equipped with DAD detector (Agilent, USA) was used. A chromatographic column Symmetry® C18 5 μm, 4.6 × 250 mm, Part No. WAT054275 (Waters Corp., Milford, MA, USA) was used. The HPLC separation process was monitored and evaluated by EZChrom Elite software ver. 3.3.2 (Agilent, USA). Isocratic elution by a mixture of MeOH p.a. (60%) and H2O-HPLC Mili-Q grade (40%) as a mobile phase was used. The total flow of the column was 1.0 mL/min, injection 20 μL, column temperature 40 °C, and sample temperature 10 °C. The detection wavelength 210 nm was chosen. The KI methanolic solution was used for the dead time (tD) determination. Retention times (tR) were measured in minutes. The capacity factors k were calculated according to formula k = (tR − tD)/tD, where tR is the retention time of the solute, whereas tD denotes the dead time obtained using an unretained analyte. Log k, calculated from the capacity factor k, is used as the lipophilicity index converted to log P scale.

[4] = Solubility in PET tested medium; format: physicochemical; conditions: PET assay medium, phosphate buffer pH 7.2, DMSO up to 4%
Procedure: Chloroplasts were prepared from spinach (Spinacia oleracea L.) according to Masarovicova and Kralova. The inhibition of photosynthetic electron transport (PET) in isolated spinach chloroplasts was determined spectrophotometrically (Genesys 6, Thermo Scientific, USA), using an artificial electron acceptor 2,6-dichlorophenol-indophenol (DCIPP) according to Kralova et al., and the rate of photosynthetic electron transport was monitored as a photoreduction of DCPIP. The measurements were carried out in phosphate buffer (0.02 mol/L, pH 7.2) containing sucrose (0.4 mol/L), MgCl2 (0.005 mol/L) and NaCl (0.015 mol/L). The chlorophyll content was 30 mg/L in these experiments and the samples were irradiated (~100 W/m^2 with 10 cm distance) with a halogen lamp (250 W) using a 4 cm water filter to prevent warming of the samples (suspension temperature 22 °C). The studied compounds were dissolved in DMSO due to their limited water solubility. […] The inhibitory efficiency of the studied compounds was expressed by IC50 values, i.e., by molar concentration of the compounds causing 50% decrease in the oxygen evolution rate relative to the untreated control.

Question: With Cc1ccc(NC(=O)c2cccc3ccccc23)cc1 [Compound 3c, N-(4-Methylphenyl)naphthalene-1-carboxamide] as the compound, how does the LD50 ([1]; human, 24 h) read?
Answer: >30 µmol/L

Question: And the “lethal effect / toxicity on THP-1 cells” value ([1]; treatment with 30 μmol/L)?
Answer: did not lead to significant lethal effect; also recorded: insignificant toxicity

Question: What about the “reduction in activity (MTT)” value [2] of the same compound?
Answer: more than 80%

Question: And the solubility (physchem)?
Answer: ≤ 30 µM

Question: What about the log k [3] of the same compound?
Answer: 0.7551

Question: What about the “solubility in tested medium (PET experiments)” value [4] of the same compound?
Answer: limited solubility
